This test addresses GSK-3β (Homo sapiens, UniProt P49841). Briefly: GSK3 kinase inhibition assay, biotin-phosphopeptide substrate, streptavidin plate scintillation counting. Particulars: compound at 1 μM; 180 min at room temperature. In kind it is biochemical. How it is done: (B) The compounds prepared in Example 1 above were assayed for activity as follows:
A 96-well round bottom plate was blocked by incubation with 400 μl/well 1% BSA/PBS for 60 min at room temperature. The blocking reagent was then aspirated. An enzyme/substrate buffer was prepared (1.225 ml 1M Tris-HCl, pH 7.5, 0.41 ml 1M MgCl2, 41 μl DTT, 250 μl 500 μg/ml GSK-3β, 9.5 μl 5 mg/ml biotin-phosphopeptide, 33.1 ml 1% BSA/PBS), and 300 μl enzyme/substrate/buffer was added to each well.
Varying concentrations of each compound were added to individual wells, or staurosporine in DMSO (final concentrations of staurosporine 100 nM or 20 nM). Next 50 μl/well ATP mixture (3.85 μl 10 mM cold ATP, 8 μl hot ATP, 5.5 ml H2O) was added, and the reaction allowed to proceed for 180 min at room temperature.
Three streptavidin-coated Labsystems Combiplate 8 plates were blocked with 1% BSA/PBS, 300 μl/well, for ≧60 min at room temperature, and the blocking reagent aspirated. Stopping reagent (50 μM ATP, 20 mM EDTA) (100 μl/well) was added to the streptavidin-coated plates, and 100 μl of the enzyme reaction mixture transferred to the streptavidin-coated plates in triplicate. […] Finally, Microscint-20 scintillation fluid (200 μl/well) was added to the plates, the plates sealed, and after incubating for 30 min, counted on a TopCount counter.

GSK-3β, sequence (P49841 whole entry, species assumed): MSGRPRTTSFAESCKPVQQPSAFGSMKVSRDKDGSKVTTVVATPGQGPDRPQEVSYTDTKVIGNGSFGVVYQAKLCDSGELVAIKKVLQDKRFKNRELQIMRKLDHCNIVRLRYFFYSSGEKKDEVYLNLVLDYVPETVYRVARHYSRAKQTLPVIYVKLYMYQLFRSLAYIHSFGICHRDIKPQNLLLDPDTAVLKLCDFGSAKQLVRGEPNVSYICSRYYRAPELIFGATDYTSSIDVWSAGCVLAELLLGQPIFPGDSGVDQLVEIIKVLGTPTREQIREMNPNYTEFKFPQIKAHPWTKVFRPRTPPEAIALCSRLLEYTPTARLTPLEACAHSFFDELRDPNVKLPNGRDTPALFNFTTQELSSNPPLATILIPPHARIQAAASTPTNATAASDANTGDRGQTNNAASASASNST

For the compound `COCC(=O)N(CC(N)=O)c1nc(NCc2ccc(C(F)(F)F)cc2)c2ncn(C)c2n1` [Compound 21208], the inhibition at 1 µM was 63%.

Usually inhibition stands for the relative decrease from the control value, in per cent. A lower inhibition goes with little suppression.

The values are drawn from US7053097B1, “Inhibitors of glycogen synthase 3 kinase” (Chiron Corporation, priority 1996, dated 2006).
